From PubChem BioAssay AID488890 (Southern Research Specialized Biocontainment Screening …, 2010)
Results filed as inconclusive are left out. The source made the active and inactive calls. How the calls were made is not given here.

Tested on: Mycobacterium tuberculosis non-replicating, growth inhibition
Assay: growth inhibition of non-replicating M. tuberculosis (AID 488890)

With `O=C(NCCCN1CCCC1)c1cc2c(Cl)nc3ccccc3c2s1` the IC50 was 10.5 µM (inactive).
For `CCOc1ccc(CC(=O)N2N=C(C)CC2(O)C(F)(F)F)cc1` (stereo not given), the IC50 was 13.3 µM (inactive).
`Oc1ccc(F)c2cccnc12` showed an IC50 of 1.61 µM.
In the case of `CCCN(CCC)CCNC(=O)c1cc2c(-c3ccc(Cl)cc3)nn(C)c2s1`, the IC50 is reported as 22.5 µM (inactive).
`O=C(OCc1c(Cl)cccc1Cl)c1ccccn1` showed an IC50 of 6.6 µM.
For `COc1cc(CNCCc2ccccc2)cc(Br)c1OCC(=O)Nc1ccccc1C`, the IC50 was 8.58 µM.
With `O=C(COC(=O)c1cc2ccccc2oc1=O)Nc1ccc(F)cc1F` the IC50 was 10.3 µM (inactive).
`CCC(=O)c1ccc(OCC(=O)OCC(=O)N2CCc3ccccc3C2)cc1` was tested, and the IC50 was 13 µM (inactive).
Compound `NC1=NC[C@H](Cc2ccc(O)cc2)N1CCc1cccc2ccccc12` has an IC50 of 8.19 µM.
For `COc1ccc2[nH]c3c(C)c4ccncc4c(C)c3c2c1`, the IC50 was 0.59 µM.
In the case of `O=C(CCc1c[nH]c2ccccc12)Nc1ncccc1O`, the IC50 is reported as 15.1 µM (inactive).
Compound `CCCCCCn1c(=O)c(C(=O)Nc2nnc(C)s2)c(O)c2ccccc21` has an IC50 of 4.29 µM.
With `COc1ccc(C(=O)COC(=O)c2ccc(Cl)nc2)c(OC)c1` the IC50 was 10.7 µM (inactive).
`Cc1nc2c(=O)n(C)c(=O)nc-2n(C)n1` was tested, and the IC50 was 8.25 µM.
`CC(C)CCNCC(O)CON=C1c2ccccc2-c2ccccc21` (stereo not given) showed an IC50 of 9.29 µM.
Work on `CCOc1cc(C=O)cc(N=Nc2cccc([N+](=O)[O-])c2)c1O` yielded an IC50 of 1.31 µM.
With `CC1CCN(C(=O)COC(=O)CCc2c[nH]c3ccccc23)CC1` the IC50 was 12.8 µM (inactive).
`C/C(Cn1nnc([N+](=O)[O-])n1)=N\NC(=O)c1ccncc1` showed an IC50 of 1.63 µM.
`COc1ccc(/C(C)=N/Nc2ncc(Cl)cc2Cl)c(O)c1` was tested, and the IC50 was 4.51 µM.
For `CCOC(=O)C(=O)NC12CC3CC(CC(C3)C1)C2`, the IC50 was 6.5 µM.
`CCCN(CCC)S(=O)(=O)c1ccc(C(=O)Nc2nnc(-c3cccc(OC)c3)o2)cc1` was tested, and the IC50 was 11.3 µM (inactive).
For `O=C(CCC1CCCC1)Nc1ccc(Br)cn1`, the IC50 was 3.88 µM.
With `O=C(CCSc1ccccn1)c1ccccc1` the IC50 was 9.72 µM.
Compound `Cn1c(/C=C/c2ccc([N+](=O)[O-])o2)nc2ccccc2c1=O` has an IC50 of less than 0.1 µM.
`O=C(Oc1cccnc1)c1ccc(Cl)c(Cl)c1` was tested, and the IC50 was 3.86 µM.
`CCN(CC)c1ccc(-c2sc(Nc3ccccc3)n[n+]2-c2ccc(F)cc2)cc1` gave an IC50 of 9.04 µM.
In the case of `Cc1cccc(N2CCN(C(=O)Cn3sc4nc(C)cc(C)c4c3=O)CC2C)c1` (stereo not given), the IC50 is reported as 2.7 µM.
With `NNC(=O)COc1cccc(Oc2ccccc2)c1` the IC50 was 25.2 µM (inactive).
`Cc1cc(C)n(-c2nc(NCCN(C)C)c3c4c(sc3n2)CCCC4)n1` gave an IC50 of 9.66 µM.
Compound `O=C(N/N=C/c1cc(Br)cc(Cl)c1O)c1ccc2c(c1)OCO2` has an IC50 of less than 0.1 µM.
In the case of `COc1ccc(-c2nnc(NC(=O)c3ccc(S(=O)(=O)N4COCC4(C)C)cc3)o2)cc1`, the IC50 is reported as 11.2 µM (inactive).
For `O=C(Nc1ccccc1C(=O)Nc1nnc(C(F)(F)F)s1)c1ccccc1`, the IC50 was 1.27 µM.
With `COc1cc(C=O)ccc1OCCCCOc1ccccc1[N+](=O)[O-]` the IC50 was 27.6 µM (inactive).
Compound `CCCn1nnnc1NCc1ccc(C(C)C)cc1` has an IC50 of 5.89 µM.
`Cc1cc(NC(=O)c2ccccc2F)n(-c2nc3ccccc3[nH]2)n1` was tested, and the IC50 was 7.5 µM.
For `CCC1CCC(c2nnc(-c3ccc([N+](=O)[O-])cc3)o2)CC1` (stereo not given), the IC50 was less than 0.1 µM.
`Clc1ccc(N=c2ssnc2Cl)nc1` showed an IC50 of 3.45 µM.
With `COc1ccc(-c2nnn(CC(=O)OC3CCCCC3)n2)cc1OC` the IC50 was 7.74 µM.
`CCCc1ccc(OCc2ccc(C(=O)N/N=C/c3cccnc3)o2)cc1` showed an IC50 of 8.42 µM.
In the case of `O=C(Nc1cccc(Cl)c1N1CCCC1)c1ccc([N+](=O)[O-])o1`, the IC50 is reported as 12 µM (inactive).
`CC(=O)c1cc2c(ccc3ccccc32)oc1=O` was tested, and the IC50 was 15.4 µM (inactive).
In the case of `O=C(COC(=O)CCN1C(=O)/C(=C\C=C\c2ccccc2)SC1=S)Nc1cc(F)ccc1F`, the IC50 is reported as 13.9 µM (inactive).
In the case of `CCCCc1ccc(NS(=O)(=O)c2c(C)n(C)c(=O)n(C)c2=O)cc1`, the IC50 is reported as 27.1 µM (inactive).
`Cc1ccc(-c2nc3ccccn3c2Nc2ccccc2)o1` showed an IC50 of 8.4 µM.
In the case of `COc1ccc(C(O)CNc2ccc(C)cc2)cc1` (stereo not given), the IC50 is reported as 43.2 µM (inactive).
In the case of `O=C1Nc2ccc(Br)cc2/C1=C/C(=O)c1ccc2c(c1)OCO2`, the IC50 is reported as 10.6 µM (inactive).
For `OC(CNCCc1ccc(C(F)(F)F)cc1)COc1cccc2ccccc12` (stereo not given), the IC50 was 9.03 µM.
In the case of `O=C(Nc1nc(-c2ccccn2)cs1)c1ccc([N+](=O)[O-])o1`, the IC50 is reported as 25.5 µM (inactive).
With `CCCCCn1c(=O)c(C(=O)Nc2nc3ccccc3[nH]2)c(O)c2ccccc21` the IC50 was 1.9 µM.
`C/C(=N\NC(=O)c1cccc(Br)c1)c1ccccn1` showed an IC50 of 3.65 µM.
With `Cn1c(=O)c2c(=O)cc(NNC(=O)CC#N)[nH]c2n(C)c1=O` the IC50 was 26.9 µM (inactive).
With `O=C1Nc2cc(C(=O)NCCN3CCCCCC3)ccc2S/C1=C\c1ccccc1` the IC50 was 12.5 µM (inactive).
In the case of `CC(=O)N1CCC(=NNC(=O)c2cccs2)CC1`, the IC50 is reported as 20.7 µM (inactive).
Work on `CCCCCCCCCCn1cc(C(C)=O)c(=O)[nH]c1=O` yielded an IC50 of 4.74 µM.
With `O=C1C=CC(O)(c2cc(=O)c3c(O)cc(O)cc3o2)C=C1` the IC50 was 2.61 µM.
For `COc1ccccc1OCCN1CSC(=S)N(C)C1`, the IC50 was 8.14 µM.
In the case of `Cc1cccc(OCCCCc2c(C)n[nH]c2C)c1`, the IC50 is reported as 9.86 µM.
Work on `Cc1ccc(C2=N/C(=C\c3cccnc3)C(=O)O2)cc1` yielded an IC50 of 6.58 µM.
For `COc1ccccc1C1=NOC(COC(=O)c2ccc([N+](=O)[O-])cc2)C1` (stereo not given), the IC50 was 18.8 µM (inactive).
`c1cncc(-c2noc(CC3CCCCC3)n2)c1` was tested, and the IC50 was 1.25 µM.
`COc1ccc(C(=O)CC(=O)C(=O)NCCc2cccc(C)c2)cc1` gave an IC50 of 4.42 µM.
`Cc1ccc2nc3c(c(N)c2c1)CCN3c1ccccc1` was tested, and the IC50 was 28.4 µM (inactive).
`Cc1onc(-c2ccccc2)c1C(=O)N/N=C/c1ccc([N+](=O)[O-])s1` showed an IC50 of 8.09 µM.
With `c1ccc(-c2cccc(-c3ccccn3)n2)nc1` the IC50 was 19.7 µM (inactive).
`CCOC(=O)c1ccc(N=C(CC)c2c(O)n(C)c(=O)n(C)c2=O)cc1` showed an IC50 of 8.28 µM.
Compound `Cc1ccc(C(=O)CCNc2ccc(Br)cc2)o1` has an IC50 of 1.84 µM.
`O=C(Nc1nnc(-c2ccc(Cl)cc2)o1)c1ccccc1Br` showed an IC50 of 0.58 µM.
For `O=C(NNc1nc2ccccc2s1)Nc1ccc(F)cc1`, the IC50 was 14.4 µM (inactive).
For `O=C(c1ccc(Cl)cc1)N1N=C(c2ccccn2)CC1(O)C(F)(F)F` (stereo not given), the IC50 was 5.51 µM.
`Cc1cc(OCCCn2ccnc2)ccc1C(C)C` gave an IC50 of 9.17 µM.
With `CCc1ccc(N2CCN(CCNC(=O)Nc3ccc(OC)cc3)CC2)cc1` the IC50 was 17.7 µM (inactive).
`Cc1ccc(-c2nnc(Cc3ccc([N+](=O)[O-])cc3)o2)cc1` showed an IC50 of 1.77 µM.
Work on `CC1CCCN(CCC(=O)c2ccc(Br)cc2)C1` (stereo not given) yielded an IC50 of 1.16 µM.
`Clc1cccc2c1Sc1ccccc1CC2N1CCNCC1` (stereo not given) showed an IC50 of 5.98 µM.
In the case of `CCN1C(=O)CC(N2CCC(c3nc4ccccc4[nH]3)CC2)C1=O` (stereo not given), the IC50 is reported as 34.2 µM (inactive).
With `CCNC(=O)COC(=O)c1ccc(-c2nc3ccccc3s2)s1` the IC50 was 5.7 µM.
With `N#Cc1ccsc1NC(=O)c1ccc(Cl)c([N+](=O)[O-])c1` the IC50 was 4.4 µM.
In the case of `CCCCOC(=O)Cn1c(-c2ccccc2)nc2ccccc2c1=O`, the IC50 is reported as 11.3 µM (inactive).
`COc1cc(C(=O)CCN2CCC(c3ccccc3)C2)cc(OC)c1OC` (stereo not given) gave an IC50 of 6.41 µM.
In the case of `Clc1ccc(OCCCNCc2ccccc2)c2ccccc12`, the IC50 is reported as 5.99 µM.
In the case of `CC1(C)CC(=O)C2=C(C1)OC(N)=C([N+](=O)[O-])C2c1ccc(C#N)s1` (stereo not given), the IC50 is reported as 11.1 µM (inactive).
In the case of `CCCCCn1nnc2c(=O)oc3ccccc3c21`, the IC50 is reported as 1.2 µM.
For `O=c1c2ccc(Cl)cc2nc(-c2ccc([N+](=O)[O-])cc2)n1O`, the IC50 was 1.3 µM.
Compound `Cc1[nH]nc2c1C(c1ccc(OC(=O)c3ccco3)cc1)C(C#N)=C(N)O2` (stereo not given) has an IC50 of 6.69 µM.
With `O=C(OCc1nc2ccccc2s1)c1ccc(Br)o1` the IC50 was 3.63 µM.
For `O=C(COc1ccc2ccccc2c1)Nc1nccs1`, the IC50 was 5.88 µM.
`COc1ccc(C(=O)COC(=O)CCC(=O)c2cccs2)cc1` was tested, and the IC50 was 34.2 µM (inactive).
In the case of `O=C(Cc1ccc(Cl)cc1)OCC(=O)c1ccc[nH]1`, the IC50 is reported as 5.58 µM.
`CCCS(=O)(=O)c1nnnn1-c1cccc(OC)c1` gave an IC50 of 3.56 µM.
For `Cc1ncsc1CCOC(=O)c1ccc([N+](=O)[O-])cc1`, the IC50 was 10.4 µM (inactive).
Compound `Cc1ccc(-c2nnc(-c3ccccc3)o2)cc1` has an IC50 of 1.71 µM.
In the case of `N=c1n(Cc2ccc(Cl)cc2)c2ccccc2n1CC(O)COc1ccccc1` (stereo not given), the IC50 is reported as 13.5 µM (inactive).
Work on `O=c1c2cc(Cl)ccc2nc(-c2ccc(Cl)c(Cl)c2)n1O` yielded an IC50 of less than 0.1 µM.
For `C[C@@H]1CN=C2N(CCNC(=O)CCC3CCCCC3)[C@H](Cc3ccc(O)cc3)CN21`, the IC50 was 18.9 µM (inactive).
With `O=C(CCS(=O)(=O)c1ccccc1)Nc1nc(-c2ccccn2)cs1` the IC50 was 11.1 µM (inactive).
In the case of `CCc1cc(C(c2ccncc2)N2CCN(C)CC2)c(NC(=O)c2ccccc2)s1` (stereo not given), the IC50 is reported as 10.6 µM (inactive).
`COc1ccc(OC)c(NC(=O)C(=O)NNC(=O)C23CC4CC(CC(C4)C2)C3)c1` was tested, and the IC50 was 5.4 µM.
`CC(C)C1O/C(=N/C(=O)Nc2ccc(Cl)c(Cl)c2)NC1=O` (stereo not given) showed an IC50 of 4.76 µM.
`COc1cc(/C=N/Nc2ccc(Cl)c(C(=O)O)c2)ccc1OC(=O)c1cccs1` gave an IC50 of 8.27 µM.
In the case of `N#CC(C(=O)Nc1ccccc1)=C1Nc2ccccc2N1`, the IC50 is reported as 37.8 µM (inactive).
With `O=C(Nc1nc(-c2cc(F)ccc2F)cs1)c1ccccn1` the IC50 was 2.28 µM.
Work on `CC(C)Cc1nnc(NC(=O)CCS(=O)(=O)c2ccc(Cl)cc2)s1` yielded an IC50 of 5.37 µM.
In the case of `O=c1cc(-c2ccccc2Cl)oc2ccc([N+](=O)[O-])c(O)c12`, the IC50 is reported as 1.59 µM.
`Cc1ccc(N/N=C2\CS(=O)(=O)N(C)c3ccsc32)cc1` was tested, and the IC50 was 0.31 µM.
In the case of `Cc1cccnc1NC(=O)COc1ccc2oc3c(c2c1)CCCC3`, the IC50 is reported as 9.41 µM.
`c1ccc(CSc2ccc(-c3ccccn3)nn2)cc1` was tested, and the IC50 was 8.02 µM.
With `COc1ccc(C(CCNCc2ccccc2)c2ccc(F)cc2)cc1` (stereo not given) the IC50 was 8.67 µM.
Compound `Brc1ccc(-c2ccc(CNCc3ccccn3)o2)cc1` has an IC50 of 1.12 µM.
With `Cc1cc(C)c2sc(NC(=O)C3=COCCO3)nc2c1` the IC50 was 8.29 µM.
Work on `CCOC(=O)COc1ccc2c(=O)cc(-c3ccccc3)oc2c1` yielded an IC50 of 0.83 µM.
In the case of `COC(=O)c1ccc(C(=O)NC2CCCc3c2cnn3-c2cc(F)cc(F)c2)nc1` (stereo not given), the IC50 is reported as 9.55 µM.
`Cc1ccc2nc(CCc3nc4ccc(C)cc4[nH]3)[nH]c2c1` was tested, and the IC50 was 17.1 µM (inactive).
`COc1ccc(-n2c3c(cc(C(=O)NNc4ccccc4)c2=O)C(=O)CC(C)(C)C3)cc1` was tested, and the IC50 was 17.8 µM (inactive).
For `Cc1ccc(CN2CC(C(=O)OCc3ccccc3Cl)CC2=O)cc1` (stereo not given), the IC50 was 8.11 µM.
With `Cc1ccc(C2=NN(C)c3nc4ccccc4n3C2)cc1` the IC50 was 18.7 µM (inactive).
